Data as given in US20240398783A1, “Compounds and Pharmaceutical Compositions Comprising Inhibitors of Amyloid Peptide Interactions with Glycosaminoglycans, Methods of Treatment and Use Thereof” (Gismo Therapeutics, Inc., priority 2021, published 2024).
Where a name gives a salt, the structure may show the parent alone. Read-outs that look alike come from different tables or passages of the source.

Legend:
[1] = target: T1, SAA binding to heparin (HS-GAG) (Homo sapiens, UniProt P0DJI8); assay: Inhibition of SAA binding to immobilized heparin-BSA (ELISA); set-up: species or system porcine
T1 sequence (P0DJI8 19-122): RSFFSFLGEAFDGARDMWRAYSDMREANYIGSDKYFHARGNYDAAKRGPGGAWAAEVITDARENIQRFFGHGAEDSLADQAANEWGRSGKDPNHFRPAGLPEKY
Procedure: (§1) Porcine intestinal mucosa heparin conjugated to Bovine Serum Albumin (Heparin-BSA) was prepared as described (Najjam, S. et al. 1997, Cytokine 12, 1013-1022). Heparin is a sulfated HS-GAG and is commonly used as a HS-GAG in biochemical and binding assays (Lindahl, U. and Kjellen, L. (2013) ibid). Heparin-BSA at 0.01 mg/ml in Phosphate Buffered Saline (PBS; pH 7.4) was added to a 96 well polystyrene ELISA plate (NUNC Cat. No. 449824; 100 μl per well) and incubated Over Night (ON) at 4 degrees Celsius. For negative controls, ELISA plates were coated with BSA instead of Heparin-BSA, using the same procedure. Following the incubation, the plate was washed consecutively, by immersion, with de-ionized water and PBS (pH 7.4). The ELISA plate was then blocked with nonfat milk (2%, 200 μl per well) for 2 hours at Room Temperature (RT) with gentle shaking. Following blocking, the plate was washed with de-ionized water then PBS (pH 7.4). GBAPs were dissolved and diluted in PBS (pH 6.5, supplemented with 0.1% BSA) at desired concentrations, added to the ELISA plates containing immobilized Heparin-BSA (100 μl per well) and incubated for 2 hours at RT with gentle shaking. Following incubation, the plate was washed with de-ionized water and three times with PBS (pH 6.5) plus Tween. Bound GBAP was detected by a monoclonal antibody specific for that GBAP, followed by incubation with secondary antibody conjugated to horseradish peroxidase (HRP). Antibody was diluted in PBS (pH 6.5 supplemented with 1% BSA). Following each incubation with antibody, the plate was washed with de-ionized water and three times with PBS (pH 6.5) wash buffer containing 0.1% Tween. The peroxidase substrate chromogen, TMB (Dako Cat. No. S1599) was added (100 μl per well) to the ELISA plate and incubated at room temperature. After 5 minutes ELISA Stop Solution (hydrochloric acid 1N, sulfuric acid 3N) was added (100 μl per well) to stop the peroxidase catalyzed colorimetric reaction. The Optical Density of the samples was measured at 450 nm using an ELISA plate reader (BioTek Synergy H1). Following color development, the % inhibition compared to control (BSA-coated plates) was determined. IC-50s were calculated using GraphPad Prism software.
The assay was performed as described in Example 43, with the following modifications. Following to coating the plates with Heparin-BSA, plates were washed as described. The compounds were dissolved in DMSO at 10 mM final concentration and further diluted prior to assay. DMSO concentration in the screening well was up to 2%. Individual compounds were co-incubated with SAA on plates containing immobilized heparin. Serum amyloid A (SAA) from PeProtech (NJ, USA, Cat. No. 300-53) was dissolved in DMSO, quickly frozen and kept in aliquots at −80 degrees Celsius. SAA dissolved in Tris buffer (pH 6.5, supplemented with BSA, 0.1%) was added to the ELISA plate (100 μl per well) and incubated for 2 hours at RT with gentle shaking. Following the incubation, the plate was washed with de-ionized water and three times with Tris Buffered Saline (TBS, pH 6.5) plus Tween. Bound SAA was detected by Anti-SAA Monoclonal Antibody (R&D System Cat. No. MAB30192), followed by secondary anti-IgG antibody conjugated to HRP (R&D System, Cat. No. HAF007). Antibody was diluted in TBS antibody buffer (pH6.5 supplemented with 1% BSA). Following each incubation with antibody, the plate was washed with de-ionized water and three times with TBS (pH6.5) wash buffer containing 0.1% Tween. Following to color development with TMB, as described in Example 43, the Optical Density of the samples was measured at 450 nm using an ELISA plate reader. Following color development, the % inhibition compared to control (no compound, DMSO control) for every compound was determined.
As described in Example 43, Heparin in the form of Heparin-BSA conjugate is used as a source of HS-GAG. For each compound IC-50 value in SAA—heparin-BSA binding assay is shown in μM (micromolar). […]

[2] = target: Tau binding to heparin (HS-GAG) (Homo sapiens, UniProt P10636); assay: Inhibition of Tau binding to immobilized heparin-BSA (ELISA); set-up: species or system porcine; conditions: for inhibition at 30 µM: read-out: Tau/Heparin Activity (% inhibition class)
Procedure: as §1
The assay was performed as described in Example 43, with the following modifications. Following to coating the plates with Heparin-BSA, plates were washed as described. The compounds were dissolved in DMSO at 10 mM final concentration and further diluted prior to assay. DMSO concentration in the screening well was up to 2%. Individual compounds were co-incubated with Tau on plates containing immobilized heparin. Tau purchased from rPeptide (Cat. No. T1001) was dissolved in DMSO (Sigma Cat. No. D2650), quickly frozen and kept in aliquots at −80 degrees Celsius. Tau dissolved in PBS (pH 6.5, supplemented with BSA, 0.1%) was added to the ELISA plate (100 μl per well) and incubated for 2 hours at RT with gentle shaking. Following the incubation, the plate was washed with de-ionized water and three times with PBS (pH 6.5) plus Tween. Bound Tau was detected by anti-Tau Monoclonal Antibody D-8 (Santa Cruz Cat. No. sc-166060), followed by secondary anti-IgG antibody conjugated to HRP (R&D System, Cat. No. HAF007). Following to color development with TMB, as described in Example 43, the Optical Density of the samples was measured at 450 nm using an ELISA plate reader. Following color development, the % inhibition compared to control (no compound, DMSO control) for every compound was determined.
An example of inhibition curve is shown in FIG. 3 for Inhibitor Compounds 3 and 6. As described in Example 43, Heparin in the form of Heparin-BSA conjugate is used as a source of HS-GAG. For each compound IC-50 value in Tau—heparin-BSA binding assay is shown in […]. In some cases IC-50 was not measured and […] at 30 μM compound concentration is shown instead. […]

[3] = read-out: Serum Amyloid A/Heparin Activity (% inhibition class)
[4] = Tau/Heparin Activity (IC-50), Tau, heparin-BSA
[5] = read-out: Serum Amyloid A/Heparin Activity (IC-50); SAA, heparin-BSA
[6] = 30 μM compound; SAA, heparin-BSA; read-out: Serum Amyloid A/Heparin Activity (% inhibition class)
[7] = 30 μM compound, Tau, heparin-BSA

Tau binding to heparin (HS-GAG), sequence (P10636 with tags, fused parts or gaps): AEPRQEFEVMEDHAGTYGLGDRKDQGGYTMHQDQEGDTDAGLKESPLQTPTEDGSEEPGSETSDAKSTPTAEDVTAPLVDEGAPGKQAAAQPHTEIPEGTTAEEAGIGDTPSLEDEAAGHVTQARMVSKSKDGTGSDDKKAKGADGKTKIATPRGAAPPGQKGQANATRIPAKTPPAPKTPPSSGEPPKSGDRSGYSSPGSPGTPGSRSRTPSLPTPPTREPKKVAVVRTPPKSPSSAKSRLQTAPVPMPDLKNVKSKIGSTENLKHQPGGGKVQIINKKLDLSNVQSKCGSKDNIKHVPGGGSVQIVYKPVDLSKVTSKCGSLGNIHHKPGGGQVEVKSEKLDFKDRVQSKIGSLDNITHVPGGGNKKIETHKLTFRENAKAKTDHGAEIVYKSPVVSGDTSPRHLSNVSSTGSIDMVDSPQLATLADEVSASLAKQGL

SMILES | IC50 [2, 4] | IC50 [1, 5] | inhibition at 30 µM [2] | also measured
COc1cc(Nc2cncc3cc(Cl)ccc23)cnc1-n1cnc(C)c1C [Compound 33, 7-chloro-N-(6-(4,5-dimethyl-1H-imidazol-1-yl)-5-methoxypyridin-3-yl)isoquinolin-4-amine phosphoric acid salt] | 24.7 µM | – | – | inhibition at 30 µM [1, 3]: < 30%
Clc1ccc2c(Nc3ccc(-n4cncn4)nc3)ncnc2c1 [Compound 34, N-(6-(1H-1,2,4-triazol-1-yl)pyridin-3-yl)-7-chloroquinazolin-4-amine phosphoric acid salt] | – | 12.4 µM | < 30% | –
Fc1cc(/C=N/Nc2ccnc3cc(Cl)ccc23)ccc1-n1ccnc1 [Compound 35, (E)-7-chloro-4-(2-(3-fluoro-4-(1H-imidazol-1-yl)benzylidene)hydrazineyl)quinoline hydrochloride] | 41.3 µM | 31.8 µM | – | –
CC(=NNc1ccnc2cc(Cl)ccc12)c1ccc(-n2ccnc2)cc1 [Compound 36, 4-(2-(1-(4-(1H-imidazol-1-yl)phenyl)ethylidene)hydrazineyl)-7-chloroquinoline phosphate] | 28.5 µM | 22 µM | – | –
Cc1cn(-c2ccc(Nc3cncc4cc(Cl)ccc34)cn2)c(C)n1 [Compound 37, 7-chloro-N-(6-(2,4-dimethyl-1H-imidazol-1-yl)pyridin-3-yl)isoquinolin-4-amine phosphoric acid salt] | – | – | < 30% | inhibition at 30 µM [1, 3]: < 30%
Clc1ccc2c(N/N=C/c3ccc(-n4ccnc4)cc3)ccnc2c1 [Compound 38, 4-(2-(4-(1H-imidazol-1-yl)benzylidene)hydrazineyl)-7-chloroquinoline dihydrochloride] | 2.94 µM | 14.9 µM | – | –
CCN1CCN(c2ccc(Nc3ccnc4cc5ccccc5cc34)cc2)CC1 [Compound 39, N-(4-(4-ethylpiperazin-1-yl)phenyl)benzo[g]quinolin-4-amine] | 13.2 µM | – | – | inhibition at 30 µM [1, 6]: > 30%
Cc1ncn(-c2ncc(Nc3ncnc4cc(Cl)ccc34)cc2O)c1C [Compound 40, 5-((7-chloroquinazolin-4-yl)amino)-2-(4,5-dimethyl-1H-imidazol-1-yl)pyridin-3-ol phosphoric acid salt] | – | – | > 30% | inhibition at 30 µM [1, 3]: > 30%
Clc1ccc2c(Nc3ccc(-n4ccnc4)nc3)ncnc2c1 [Compound 41, N-(6-(1H-imidazol-1-yl)pyridin-3-yl)-7-chloroquinazolin-4-amine] | – | – | – | IC50 ([1]; SAA, heparin-BSA; read-out: Serum Amyloid A/Heparin Activity (IC-50)): 12.2 µM; IC50 ([2]; Tau, heparin-BSA, read-out: Tau/Heparin Activity (IC-50)): 14.7 µM
CCN(CC)Cc1cccc(Nc2ccnc3cc(Cl)ccc23)c1 [Compound 42, 7-chloro-N-(3-((diethylamino)methyl)phenyl)quinolin-4-amine] | – | – | – | inhibition at 30 µM [1, 6]: < 30%; inhibition at 30 µM [2, 7]: < 30%
C[n+]1ccn(-c2ccc(Nc3ncnc4cc(Cl)ccc34)cn2)c1 [Compound 43, 1-(5-((7-chloroquinazolin-4-yl)amino)pyridin-2-yl)-3-methyl-1H-imidazol-3-ium iodide phosphoric acid salt] | – | 31.5 µM | < 30% | –
Clc1ccc2c(Nc3ccc(-n4cncn4)nc3)ccnc2c1 [Compound 44, N-(6-(1H-1,2,4-triazol-1-yl)pyridin-3-yl)-7-chloroquinolin-4-amine] | – | 17.4 µM | > 30% | –
CN(C)Cc1cc(Nc2ccnc3cc(Cl)ccc23)ccn1 [Compound 45, 7-chloro-N-(2-((dimethylamino)methyl)pyridin-4-yl)quinolin-4-amine] | – | 63.5 µM | – | inhibition at 30 µM [2, 7]: < 30%
